Measurements: patent US8507540B2, “Oxazolidinone derivatives containing new bicyclic group, having antibacterial activity, and method for treating pathogenic bacterial infections using the same” (Korean Institute of Science and Technology, priority 2011, dated 2013)
In brackets after ≈: the same amount, converted by molar mass.

Experiments:
[1] = test system: Mycobacterium tuberculosis (Mtb) H37Rv; test: In vitro antituberculous activity test, Microplate Alamar Blue Assay; format: cell-based; conditions: versus linezolid
[2] = test system: Staphylococcus aureus, methicillin resistant; test: In vitro antibacterial activity test, Agar Dilution MIC; conditions: 18 h
[3] = test system: Staphylococcus aureus, methicillin susceptible; test: as above; conditions: 18 h
[4] = test system: Coagulase negative staphylococci, methicillin resistant; test: as above; conditions: 18 h
[5] = test system: Coagulase negative staphylococci, methicillin susceptible; test: as above; conditions: 18 h
[6] = test system: Enterococcus faecalis, vancomycin resistant; test: as above; conditions: 18 h
[7] = test system: Enterococcus faecalis, vancomycin susceptible; test: as above; conditions: 18 h
[8] = test system: Enterococcus faecium, vancomycin resistant; test: as above; conditions: 18 h
[9] = test system: Enterococcus faecium, vancomycin susceptible; test: as above; conditions: 18 h
[10] = test system: Staphylococcus pneumoniae, penicillin non-susceptible; test: as above; conditions: 18 h
[11] = test system: Staphylococcus pneumoniae, penicillin susceptible; test: as above; conditions: 18 h
Staphylococcus pyogenes = test: as above; conditions: Staphylococcus aureus, 18 h
[12] = test system: Staphylococcus agalactiae; test: as above; conditions: 18 h
[13] = test system: Haemophilus influenzae, beta-lactamase-positive; test: as above; conditions: 18 h
[14] = test system: MRSA and other gram positive bacteria; Staphylococcus sp., Enterococcus sp. and Haemophilus influenza; test: In vitro antibacterial activity test, overall statements on the strain panel; conditions: various strains of Table 1
CYP1A2 = biological target: T1, CYP1A2 (Homo sapiens, UniProt P05177); test: CYP450 remaining test (Vivid CYP450 Screening Kits); format: in vitro ADME; conditions: isozyme 1A2
T1 construct: purchased Invitrogen

CYP2D6 = CYP2D6 (Homo sapiens, UniProt P10635); test: as above
Procedure: (§1) CYP450 remaining test was conducted using Vivid® CYP450 Screening Kits Protocol (Invitrogen), and hERG assay for cardiac toxicity test was conducted using an automated patch-clamp device, NPC-16 Patchliner (Nanion Technologies, Munchen, Germany) according to the method of C. Farre, et al. (Combinatorial Chemistry & High Throughput Screening, 2009, 12, 24-37). And, human hepatic microsomal stability test was conducted according to the method of W. A. Korfmacher, et al. (Rapid Commun. Mass Spectrom. 13, 901-907 (1999)).

CYP3A4 = CYP3A4 (Homo sapiens, UniProt P08684); test: as above
Procedure: as §1

hERG = hERG (Homo sapiens, UniProt Q12809); test: hERG assay for cardiac toxicity, automated patch-clamp; format: cell-based
[15] = Human hepatic microsomal stability test; format: in vitro ADME; conditions: human hepatic microsomes
[16] = test system: CYP1A2, CYP2D6, CYP2C9, CYP3A4; test: in vitro; format: in vitro ADME; conditions: human
CYP2C9 = CYP2C9 (Homo sapiens, UniProt P11712); test: CYP450 remaining test (Vivid CYP450 Screening Kits)
[17] = automated patch-clamp, NPC-16 Patchliner

hERG, sequence (Q12809 whole entry): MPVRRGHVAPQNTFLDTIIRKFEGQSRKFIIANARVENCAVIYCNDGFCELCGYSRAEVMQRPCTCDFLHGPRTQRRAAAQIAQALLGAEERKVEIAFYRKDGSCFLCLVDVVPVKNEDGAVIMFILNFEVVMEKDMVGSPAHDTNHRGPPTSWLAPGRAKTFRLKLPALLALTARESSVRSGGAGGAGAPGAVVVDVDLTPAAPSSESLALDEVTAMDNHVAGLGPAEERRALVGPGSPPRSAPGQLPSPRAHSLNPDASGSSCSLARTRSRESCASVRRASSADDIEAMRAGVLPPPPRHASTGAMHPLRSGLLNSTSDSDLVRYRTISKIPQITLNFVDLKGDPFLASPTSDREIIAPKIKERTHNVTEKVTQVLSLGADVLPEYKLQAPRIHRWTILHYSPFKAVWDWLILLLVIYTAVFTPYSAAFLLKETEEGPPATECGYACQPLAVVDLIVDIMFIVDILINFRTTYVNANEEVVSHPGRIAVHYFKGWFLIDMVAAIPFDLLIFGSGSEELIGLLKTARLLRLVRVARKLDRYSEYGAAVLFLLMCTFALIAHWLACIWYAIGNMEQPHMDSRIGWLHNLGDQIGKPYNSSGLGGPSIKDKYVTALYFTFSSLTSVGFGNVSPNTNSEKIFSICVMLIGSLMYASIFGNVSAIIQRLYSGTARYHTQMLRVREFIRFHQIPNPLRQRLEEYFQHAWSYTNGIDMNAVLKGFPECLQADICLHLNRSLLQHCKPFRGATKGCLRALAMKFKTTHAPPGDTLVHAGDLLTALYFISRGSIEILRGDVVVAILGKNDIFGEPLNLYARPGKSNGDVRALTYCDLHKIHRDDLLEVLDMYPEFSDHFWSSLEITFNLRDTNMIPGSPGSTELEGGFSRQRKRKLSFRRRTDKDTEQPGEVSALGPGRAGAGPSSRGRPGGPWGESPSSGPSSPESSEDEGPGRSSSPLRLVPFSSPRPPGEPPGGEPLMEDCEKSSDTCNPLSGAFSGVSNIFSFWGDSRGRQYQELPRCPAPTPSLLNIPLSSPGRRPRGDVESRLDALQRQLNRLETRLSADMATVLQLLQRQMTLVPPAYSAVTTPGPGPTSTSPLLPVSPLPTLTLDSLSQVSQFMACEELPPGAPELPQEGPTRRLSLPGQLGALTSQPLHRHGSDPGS
CYP2D6, sequence (P10635 whole entry): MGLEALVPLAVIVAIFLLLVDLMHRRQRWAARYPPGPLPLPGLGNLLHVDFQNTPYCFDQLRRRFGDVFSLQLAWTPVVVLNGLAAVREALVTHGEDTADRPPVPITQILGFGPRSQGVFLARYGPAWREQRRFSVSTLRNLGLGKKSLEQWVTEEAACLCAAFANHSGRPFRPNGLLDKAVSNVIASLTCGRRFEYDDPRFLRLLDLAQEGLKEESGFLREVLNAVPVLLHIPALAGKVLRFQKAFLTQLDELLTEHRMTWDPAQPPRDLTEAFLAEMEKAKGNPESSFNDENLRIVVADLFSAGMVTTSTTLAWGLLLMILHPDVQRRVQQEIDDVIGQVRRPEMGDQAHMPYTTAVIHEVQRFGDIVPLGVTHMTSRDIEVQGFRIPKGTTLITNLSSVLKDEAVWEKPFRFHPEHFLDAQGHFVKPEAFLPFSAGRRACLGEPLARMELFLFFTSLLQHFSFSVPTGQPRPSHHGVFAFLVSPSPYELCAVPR
CYP2C9, sequence (P11712 whole entry): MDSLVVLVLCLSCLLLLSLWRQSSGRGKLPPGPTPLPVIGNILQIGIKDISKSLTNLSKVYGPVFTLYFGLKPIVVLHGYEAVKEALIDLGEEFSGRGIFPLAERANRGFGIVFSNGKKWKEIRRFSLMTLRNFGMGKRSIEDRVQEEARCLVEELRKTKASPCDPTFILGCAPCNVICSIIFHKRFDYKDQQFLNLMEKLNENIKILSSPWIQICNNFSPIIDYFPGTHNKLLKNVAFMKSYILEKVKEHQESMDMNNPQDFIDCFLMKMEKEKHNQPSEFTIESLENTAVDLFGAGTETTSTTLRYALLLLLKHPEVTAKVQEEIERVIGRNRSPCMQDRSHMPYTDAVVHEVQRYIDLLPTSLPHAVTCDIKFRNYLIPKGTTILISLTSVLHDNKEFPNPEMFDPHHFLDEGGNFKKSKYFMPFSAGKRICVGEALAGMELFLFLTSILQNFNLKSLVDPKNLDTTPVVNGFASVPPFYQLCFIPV
CYP3A4, sequence (P08684 whole entry): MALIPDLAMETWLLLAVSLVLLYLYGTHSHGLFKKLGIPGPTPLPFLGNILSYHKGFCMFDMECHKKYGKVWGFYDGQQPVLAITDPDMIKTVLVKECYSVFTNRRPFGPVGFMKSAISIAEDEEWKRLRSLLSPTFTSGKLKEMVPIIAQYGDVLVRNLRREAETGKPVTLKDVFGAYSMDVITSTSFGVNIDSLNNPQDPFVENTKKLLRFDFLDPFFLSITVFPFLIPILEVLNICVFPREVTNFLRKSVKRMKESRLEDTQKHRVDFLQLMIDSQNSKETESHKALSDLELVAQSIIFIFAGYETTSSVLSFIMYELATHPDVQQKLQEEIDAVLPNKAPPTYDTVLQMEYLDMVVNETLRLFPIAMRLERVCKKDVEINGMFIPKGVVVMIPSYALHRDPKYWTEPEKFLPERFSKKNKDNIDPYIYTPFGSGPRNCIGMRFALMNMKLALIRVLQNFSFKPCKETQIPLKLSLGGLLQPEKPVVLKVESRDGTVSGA
T1 sequence (P05177 whole entry): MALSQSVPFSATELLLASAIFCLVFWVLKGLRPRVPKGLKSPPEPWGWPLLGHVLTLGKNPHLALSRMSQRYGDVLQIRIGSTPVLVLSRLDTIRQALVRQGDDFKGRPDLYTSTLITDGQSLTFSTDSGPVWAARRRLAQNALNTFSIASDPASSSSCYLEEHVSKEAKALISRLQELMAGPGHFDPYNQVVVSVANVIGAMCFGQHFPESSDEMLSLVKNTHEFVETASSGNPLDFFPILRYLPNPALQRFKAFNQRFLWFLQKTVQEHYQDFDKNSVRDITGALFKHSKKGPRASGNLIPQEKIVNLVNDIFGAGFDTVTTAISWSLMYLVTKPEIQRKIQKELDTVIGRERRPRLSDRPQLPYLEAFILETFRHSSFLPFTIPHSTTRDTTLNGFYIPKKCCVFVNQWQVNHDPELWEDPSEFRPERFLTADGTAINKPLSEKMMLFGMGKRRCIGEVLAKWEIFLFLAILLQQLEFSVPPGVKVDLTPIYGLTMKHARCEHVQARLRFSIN

| Compound | antituberculous activity compared to linezolid [1] | MIC [2] [µg/mL] | MIC [3] [µg/mL] | MIC [4] [µg/mL] | MIC [5] [µg/mL] | MIC [6] [µg/mL] | MIC [7] [µg/mL] | MIC [8] [µg/mL] | MIC [9] [µg/mL] | MIC [10] [µg/mL] | MIC [11] [µg/mL] | MIC (Staphylococcus pyogenes) [µg/mL] | MIC [12] [µg/mL] | MIC [13] [µg/mL] | antibacterial activity against the strain panel [14] | further results |
| --- | --- | --- | --- | --- | --- | --- | --- | --- | --- | --- | --- | --- | --- | --- | --- | --- |
| CC(=O)NC[C@H]1CN(c2ccc(N3CC4CC(=CC#N)CC4C3)c(F)c2)C(=O)O1 (stereo partly drawn) [Example 1, N-[[(5S)-3-[4-(5-cyanomethylene-hexahydro-cyclopenta[c]pyrrol-2-yl)-3-fluorophenyl]-2-oxo-5-oxazolidinyl]methyl]acetamide] | antibacterial effects equivalent to linezolid | 3.1 (≈ 7.78 µM) | 3.1 (≈ 7.78 µM) | 3.1 (≈ 7.78 µM) | 3.1 (≈ 7.78 µM) | 1.5 (≈ 3.76 µM) | 1.5 (≈ 3.76 µM) | 1.5 (≈ 3.76 µM) | 0.7 (≈ 1.76 µM) | 0.7 (≈ 1.76 µM) | 0.7 (≈ 1.76 µM) | 0.7 (≈ 1.76 µM) | 1.5 (≈ 3.76 µM) | 0.7 (≈ 1.76 µM) |  |  |
| CC(=O)NC[C@H]1CN(c2ccc(N3CC4C=C(CC#N)CC4C3)c(F)c2)C(=O)O1 (stereo partly drawn) [Example 2, N-[[(5S)-3-[4-(5-cyanomethyl-3,3a,4,6a-tetrahydro-1H-cyclopenta[c]pyrrol-2-yl)-3-fluorophenyl]-2-oxo-5-oxazolidinyl]methyl]acetamide] | antibacterial effects equivalent to linezolid | 1.5 (≈ 3.76 µM) | 3.1 (≈ 7.78 µM) | 3.1 (≈ 7.78 µM) | 3.1 (≈ 7.78 µM) | 3.1 (≈ 7.78 µM) | 1.5 (≈ 3.76 µM) | 1.5 (≈ 3.76 µM) | 1.5 (≈ 3.76 µM) | 0.7 (≈ 1.76 µM) | 0.7 (≈ 1.76 µM) | 0.7 (≈ 1.76 µM) | 1.5 (≈ 3.76 µM) | 1.5 (≈ 3.76 µM) | high antibacterial activities |  |
| CC(=O)NC[C@H]1CN(c2ccc(N3CC4C=C(C#N)CC4C3)c(F)c2)C(=O)O1 (stereo partly drawn) [Example 3, N-[[(5S)-3-[4-(5-cyano-3,3a,4,6a-tetrahydro-1H-cyclopenta[c]pyrrol-2-yl)-3-fluorophenyl]-2-oxo-5-oxazolidinyl]methyl]acetamide] | more excellent antibacterial activities than linezolid | 1.5 (≈ 3.9 µM) | 3.1 (≈ 8.06 µM) | 3.1 (≈ 8.06 µM) | 3.1 (≈ 8.06 µM) | 3.1 (≈ 8.06 µM) | 3.1 (≈ 8.06 µM) | 1.5 (≈ 3.9 µM) | 1.5 (≈ 3.9 µM) | 0.3 (≈ 0.78 µM) | 0.7 (≈ 1.82 µM) | 0.7 (≈ 1.82 µM) | 1.5 (≈ 3.9 µM) | 0.3 (≈ 0.78 µM) | high antibacterial activities |  |
| O=C1CC2CN(c3ccc(N4C[C@H](Cn5ccnn5)OC4=O)cc3F)CC2C1 (stereo partly drawn) [Example 4, (5R)-3-[3-fluoro-4-(5-oxo-hexahydro-cyclopenta[c]pyrrol-2-yl)phenyl]-5-(1,2,3-triazol-1-ylmethyl)oxazolidin-2-one] | more excellent antibacterial activities than linezolid | 3.1 (≈ 8.04 µM) | 3.1 (≈ 8.04 µM) | 3.1 (≈ 8.04 µM) | 3.1 (≈ 8.04 µM) | 1.5 (≈ 3.89 µM) | 1.5 (≈ 3.89 µM) | 3.1 (≈ 8.04 µM) | 1.5 (≈ 3.89 µM) | 0.3 (≈ 0.778 µM) | 0.7 (≈ 1.82 µM) | 0.3 (≈ 0.778 µM) | 0.7 (≈ 1.82 µM) | 1.5 (≈ 3.89 µM) | high antibacterial activities | activity (CYP1A2): 94.9%; activity (CYP2D6): 108%; activity (CYP3A4): 106%; IC50 (hERG; [17]): 80.5 µM; hERG Max, (hERG; [17]): 38%; hERG bonding (hERG; in vitro hERG assay, cardiac toxicity): does not have hERG bonding; Human Hepatic Microsomal stability Remaining activity after 30 minutes (%) [15]: 83.8%; activity [16]: 73.6 to 106%; activity (CYP2C9): 73.7% |
| O=C1O[C@@H](Cn2ccnn2)CN1c1ccc(N2CC3CC(=NO)CC3C2)c(F)c1 (stereo partly drawn) [Example 5, (5R)-3-[3-fluoro-4-(5-hydroxyimino-hexahydro-cyclopenta[c]pyrrol-2-yl)phenyl]-5-(1,2,3-triazol-1-ylmethyl)oxazolidin-2-one] |  | 6.2 (≈ 15.5 µM) | 6.2 (≈ 15.5 µM) | 6.2 (≈ 15.5 µM) | 6.2 (≈ 15.5 µM) | 6.2 (≈ 15.5 µM) | 6.2 (≈ 15.5 µM) | 6.2 (≈ 15.5 µM) | 3.1 (≈ 7.74 µM) | 0.7 (≈ 1.75 µM) | 1.5 (≈ 3.75 µM) | 0.7 (≈ 1.75 µM) | 1.5 (≈ 3.75 µM) | 3.1 (≈ 7.74 µM) |  |  |
| CON=C1CC2CN(c3ccc(N4C[C@H](Cn5ccnn5)OC4=O)cc3F)CC2C1 (stereo partly drawn) [Example 6, (5R)-3-[3-fluoro-4-(5-methoxyimino-hexahydro-cyclopenta[c]pyrrol-2-yl)phenyl]-5-(1,2,3-triazol-1-ylmethyl)oxazolidin-2-one] | antibacterial effects equivalent to linezolid | 6.2 (≈ 15 µM) | 6.2 (≈ 15 µM) | 6.2 (≈ 15 µM) | 6.2 (≈ 15 µM) | 3.1 (≈ 7.48 µM) | 1.5 (≈ 3.62 µM) | 1.5 (≈ 3.62 µM) | 1.5 (≈ 3.62 µM) | 0.1 (≈ 0.241 µM) | 0.3 (≈ 0.724 µM) | 0.1 (≈ 0.241 µM) | 0.3 (≈ 0.724 µM) | 0.3 (≈ 0.724 µM) |  |  |
| N#CC=C1CC2CN(c3ccc(N4C[C@H](Cn5ccnn5)OC4=O)cc3F)CC2C1 (stereo partly drawn) [Example 7, (5R)-3-[4-(5-cyanomethylene-hexahydro-cyclopenta[c]pyrrol-2-yl)-3-fluorophenyl]-5-(1,2,3-triazol-1-ylmethyl)oxazolidin-2-one] | antibacterial effects equivalent to linezolid | 0.7 (≈ 1.71 µM) | 1.5 (≈ 3.67 µM) | 1.5 (≈ 3.67 µM) | 1.5 (≈ 3.67 µM) | 3.1 (≈ 7.59 µM) | 1.5 (≈ 3.67 µM) | 1.5 (≈ 3.67 µM) | 1.5 (≈ 3.67 µM) | 0.3 (≈ 0.735 µM) | 0.7 (≈ 1.71 µM) | 0.3 (≈ 0.735 µM) | 0.7 (≈ 1.71 µM) | 0.3 (≈ 0.735 µM) | high antibacterial activities |  |
| N#CCC1=CC2CN(c3ccc(N4C[C@H](Cn5ccnn5)OC4=O)cc3F)CC2C1 (stereo partly drawn) [Example 8, (5R)-3-[4-(5-cyanomethyl-3,3a,4,6a-tetrahydro-1H-cyclopenta[c]pyrrol-2-yl)-3-fluorophenyl]-5-(1,2,3-triazol-1-ylmethyl)oxazolidin-2-one] |  | 1.5 (≈ 3.67 µM) | 6.2 (≈ 15.2 µM) | 6.2 (≈ 15.2 µM) | 6.2 (≈ 15.2 µM) | 6.2 (≈ 15.2 µM) | 6.2 (≈ 15.2 µM) | 6.2 (≈ 15.2 µM) | 6.2 (≈ 15.2 µM) | 1.5 (≈ 3.67 µM) | 3.1 (≈ 7.59 µM) | 1.5 (≈ 3.67 µM) | 3.1 (≈ 7.59 µM) | 1.5 (≈ 3.67 µM) |  |  |
| N#CC1=CC2CN(c3ccc(N4C[C@H](Cn5ccnn5)OC4=O)cc3F)CC2C1 (stereo partly drawn) [Example 9, (5R)-3-[4-(5-cyano-3,3a,4,6a-tetrahydro-1H-cyclopenta[c]pyrrol-2-yl)-3-fluorophenyl]-5-(1,2,3-triazol-1-ylmethyl)oxazolidin-2-one] |  | 1.5 (≈ 3.8 µM) | 3.1 (≈ 7.86 µM) | 3.1 (≈ 7.86 µM) | 3.1 (≈ 7.86 µM) | 3.1 (≈ 7.86 µM) | 3.1 (≈ 7.86 µM) | 3.1 (≈ 7.86 µM) | 3.1 (≈ 7.86 µM) | 0.7 (≈ 1.77 µM) | 1.5 (≈ 3.8 µM) | 0.7 (≈ 1.77 µM) | 1.5 (≈ 3.8 µM) | 0.7 (≈ 1.77 µM) |  |  |
| CC(=O)NC[C@H]1CN(c2ccc(N3CCOCC3)c(F)c2)C(=O)O1 [LZD, linezolid, reference compound] |  | 3.1 (≈ 9.19 µM) | 3.1 (≈ 9.19 µM) | 3.1 (≈ 9.19 µM) | 3.1 (≈ 9.19 µM) | 1.5 (≈ 4.45 µM) | 1.5 (≈ 4.45 µM) | 1.5 (≈ 4.45 µM) | 1.5 (≈ 4.45 µM) | 0.7 (≈ 2.07 µM) | 0.7 (≈ 2.07 µM) | 0.7 (≈ 2.07 µM) | 1.5 (≈ 4.45 µM) | 0.7 (≈ 2.07 µM) |  |  |
| CC(=O)N1CCN(c2ccc(OCC3COC(Cn4ccnc4)(c4ccc(Cl)cc4Cl)O3)cc2)CC1 (centres unmarked) [ketoconazole, reference compound] |  |  |  |  |  |  |  |  |  |  |  |  |  |  |  | activity (CYP3A4): 2.3% |
| C=C[C@H]1C[N@@]2CC[C@H]1C[C@@H]2[C@@H](O)c1ccnc2ccc(OC)cc12 [quinidine, reference compound] |  |  |  |  |  |  |  |  |  |  |  |  |  |  |  | activity (CYP2D6): 11.1% |
| Nc1ccc(S(=O)(=O)Nc2ccnn2-c2ccccc2)cc1 [sulfaphenazol, reference compound] |  |  |  |  |  |  |  |  |  |  |  |  |  |  |  | activity (CYP2C9): -3.5% |
